We go through twelve molecules from patent publication US7713994B2 (Wyeth LLC, priority 2005, dated 2010).

Broadly, the IC50 is the concentration needed to halve the response being measured. The term inhibition denotes the drop in the measured response relative to a control, in per cent. For orientation: melting point means the temperature, or range, at which the solid turns liquid.

Data set [1] has as its target T1, IGF1-receptor kinase (Homo sapiens, UniProt P08069).
T1 construct: Purified GST-IGFR; purified Bis-IGFR and Tris-IGFR; fused on or other part: GST with a thrombin cleavage site, removed in the Bis-IGFR and Tris-IGFR forms
The experiment in a line: IGF1-R kinase assay (96-well FRET Lance). It is filed as biochemical. As to conditions: for IC50: 100 micromolar ATP, read-out: Igfr ic50. From the text:
• TITLE: 96-well assay for inhibitors of IGF1-receptor kinase activity • SHORT TITLE: IGF1-R kinase assay • PURPOSE: Identify inhibitors of IGF-1 receptor kinase activity • MATERIALS AND METHODS: Overview: This is a 96-well FRET (Lance) tyrosine kinase assay. • Materials: • Purified GST-IGFR; purified Bis-IGFR and Tris-IGFR; expressed in ExpresSF insect cells. Bis and Tris IGFR are made by phosphorylating the IGFR in the presence of ATP and Mg2+, followed by thrombin cleavage to remove the GST-thrombin cleavage site, and purification by HPLC. The Bis and tris IGFR are phosphorylated on two (bis) or all three tyrosines (tris) in the activation loop. • Biotinylated peptide with a sequence corresponding to the sequence surrounding the autophosphorylation sites in IGF1-R Biotin-NH2-[…]-OH (Anaspec) • Europium-conjugated phosphotyrosine antibody (PT66) (Perkin-Elmer). • Surelight APC (Perkin-elmer) • Plates: 96-well Assay plates (polypropylene plates, natural color) • 96-well-Lance plates (Microfluor 2 black plates; Cat # 7205; Thermolabsystems. • ATP: (Amersham Pharmacia Cat # 27-2056-01), 100 mM stock. • IGFR Lance Protocol (96-well format) • Procedure: • Reagents: • Kinase Buffer (10×): • 0.5 M Hepes, pH 7.5 rt • 0.1 M MgCl2 • Quench Buffer (to be added straight, 1:1, to r×n mix): • 50 mM Hepes, pH 7.5 rt • 50 mM EDTA • Lance Detection Buffer: • 20 mM Tris-HCl, pH 7.5 rt • 0.15 M NaCl-150 • 150 ug/ml BSA (Sigma Cat# A-7284) • Eu-labeled phosphotyrosine antibody PT66 (Perkin-Elmer): 1:4000 dilution of 200 μg/ml stock • Streptavidin-APC (Perkin Elmer): 1/250 (4 microgram/ml final) • ATP (Amersham Pharmacia cat #27-2056-01) 100 mM stock: Dilute to 1 mM (10×) in water. […] Transfer 12.5[…] of the kinase reaction to the antibody detection plate. Allow antibody to react for 1 h at rt in the dark. Then read in Victor with an excitation filter of 340 nm and an emission filter of 665 nm. • Compound additions: • When Example compounds are tested, they are added from a 10% DMSO/50 mM Hepes (pH 7.5) 10× stock. 5 microliters of compound in this buffer are added to the enzyme-peptide-buffer mix. After 10′ incubation at room temperature, ATP is added to start the reaction. A no ATP background control is included in the assay. • […] OF RESULTS: Data are analyzed as follows: % Inhibition={[Sample cpm−Bkg cpm]/[No cmpd cpm−Bkg cpm]}×100%. The biological activity of representative Examples of the invention is reported in Table VII as: 0.2 µM≦x≦10 µM or % inhibition@10 µM.

The target of data set [2] is T2, cyclin D1/cdk 4 enzyme (Homo sapiens, UniProt P11802).
T2 construct: made in house; host or cells: Sf9 insect cells, recombinant baculovirus
The experiment in a line: CDK4 ELISA kinase assay (phospho-Rb ser 795 detection). It is filed as biochemical. Particulars: In Vitro Enzyme Assays, 200 μM ATP, read-out: CDK4 IC50. A digest of the protocol:
(§1)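 Wells were coated overnight with GST-Rb C-terminal fragment, then blocked. Compound (10 ug/ml final) and cyclin/CDK enzyme from baculovirus-infected Sf9 cells with 200 μM ATP reacted 1 h at 30° C. Ser795 phosphorylation was detected by ELISA at 450 nm.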
In general terms: An ELISA detects its analyte on a solid surface through an enzyme-linked reagent.

For data set [3], the target named is T3, cyclin E/CDK2 enzyme (Homo sapiens, UniProt P24941).
T3 construct: made in house; host or cells: Sf9 insect cells, recombinant baculovirus
Description: CDK2 ELISA kinase assay (phospho-Rb ser 795 detection). Format: biochemical. Particulars: In Vitro Enzyme Assays, read-out: CDK2 IC50. A digest of the protocol:
as §1

For data set [4], the target named is T4, cyclin B/CDK1 enzyme (Homo sapiens, UniProt P06493).
T4 construct: purchased New England BioLabs; host or cells: Sf9 insect cells, recombinant baculovirus
The experiment in a line: CDK1 ELISA kinase assay (phospho-Rb ser 795 detection). It is filed as biochemical. Particulars: In Vitro Enzyme Assays, read-out: CDK1 IC50. A digest of the protocol:
as §1

For data set [5], the system named is BT474. Description: Cytotoxicity assay (SRB), BT474. Format: cell-based. Particulars: Homo sapiens, BT-474, 144 h, BT474 cells, SRB, 6 days; read-out: In Vitro Cellular Activity IC50 BT474. In a few lines:
(§2)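 BT474 (12000 cells/well) was treated for 6 days, whereas HCT-116 (4000), LoVo (6000) and MCF-7 (6000) were treated for 3 days, all in RPMI 1640 containing 5% FBS. Surviving-cell percentage came from SRB dye binding measured at 540 nm.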

Data set [6] has as its system HCT-116. The experiment in a line: Cytotoxicity assay (SRB), HCT-116. It is filed as cell-based. As to conditions: Homo sapiens, HCT-116, 72 h, HCT116 cells, SRB, three days; read-out: In Vitro Cellular Activity IC50 HCT116. In a few lines:
as §2

Data set [7] deals with LoVo. Description: Cytotoxicity assay (SRB), LoVo. It is filed as cell-based. As to conditions: Homo sapiens, LoVo, 72 h, LoVo cells, SRB, three days; read-out: In Vitro Cellular Activity IC50 LOVO. A digest of the protocol: as §2
The subject of data set [8] is MCF-7. The experiment in a line: Cytotoxicity assay (SRB), MCF-7. It is filed as cell-based. Particulars: Homo sapiens, MCF7, 72 h, MCF-7 cells, SRB, three days; read-out: In Vitro Cellular Activity IC50 MCF-7. A digest of the protocol: as §2
The test system of data set [9] is SK-UT-1B. The experiment in a line: In Vitro Cellular Activity (Table III), SK-UT-1B. Format: cell-based. As to conditions: Homo sapiens, Skut1B; SK-UT-1B cells.

T1 sequence (P08069 999-1274 limits assumed): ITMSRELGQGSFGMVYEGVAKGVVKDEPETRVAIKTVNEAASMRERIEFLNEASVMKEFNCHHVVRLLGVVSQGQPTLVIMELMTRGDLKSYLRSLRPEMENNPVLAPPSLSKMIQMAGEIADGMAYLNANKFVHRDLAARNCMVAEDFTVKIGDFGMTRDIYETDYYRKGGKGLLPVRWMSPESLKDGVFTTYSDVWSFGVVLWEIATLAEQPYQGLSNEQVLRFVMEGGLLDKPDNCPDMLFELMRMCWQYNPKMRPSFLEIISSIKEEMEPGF
T4 sequence (P06493 whole entry): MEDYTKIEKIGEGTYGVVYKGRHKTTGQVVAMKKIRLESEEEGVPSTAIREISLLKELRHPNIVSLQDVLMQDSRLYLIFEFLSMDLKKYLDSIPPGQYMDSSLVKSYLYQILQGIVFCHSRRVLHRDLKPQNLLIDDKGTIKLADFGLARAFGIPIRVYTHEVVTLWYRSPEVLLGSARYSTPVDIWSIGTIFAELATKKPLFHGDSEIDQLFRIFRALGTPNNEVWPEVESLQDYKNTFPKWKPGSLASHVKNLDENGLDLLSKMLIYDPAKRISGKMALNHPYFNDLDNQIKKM
T4 sequence (P14635 whole entry partner): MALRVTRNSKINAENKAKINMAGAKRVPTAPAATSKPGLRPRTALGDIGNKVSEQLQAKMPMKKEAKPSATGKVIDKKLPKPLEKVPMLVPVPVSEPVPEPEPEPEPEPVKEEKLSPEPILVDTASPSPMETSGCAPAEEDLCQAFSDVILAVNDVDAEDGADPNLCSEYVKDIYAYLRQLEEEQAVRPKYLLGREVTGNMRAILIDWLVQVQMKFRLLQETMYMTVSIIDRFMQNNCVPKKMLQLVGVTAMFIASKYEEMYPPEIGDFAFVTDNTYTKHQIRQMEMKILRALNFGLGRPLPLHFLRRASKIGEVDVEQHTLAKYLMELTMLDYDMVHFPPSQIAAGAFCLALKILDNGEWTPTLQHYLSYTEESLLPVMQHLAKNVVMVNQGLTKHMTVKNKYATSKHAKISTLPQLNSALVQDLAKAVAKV
T2 sequence (P11802 whole entry, species assumed): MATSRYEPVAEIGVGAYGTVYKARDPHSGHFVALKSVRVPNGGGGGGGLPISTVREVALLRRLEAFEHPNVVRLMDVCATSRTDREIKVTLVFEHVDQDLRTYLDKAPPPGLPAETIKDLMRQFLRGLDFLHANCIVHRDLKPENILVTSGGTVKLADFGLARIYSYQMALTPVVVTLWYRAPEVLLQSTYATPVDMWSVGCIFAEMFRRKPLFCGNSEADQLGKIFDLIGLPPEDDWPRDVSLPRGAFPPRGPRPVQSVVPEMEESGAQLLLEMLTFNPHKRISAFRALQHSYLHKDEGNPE
T2 sequence (P24385 whole entry partner, species assumed): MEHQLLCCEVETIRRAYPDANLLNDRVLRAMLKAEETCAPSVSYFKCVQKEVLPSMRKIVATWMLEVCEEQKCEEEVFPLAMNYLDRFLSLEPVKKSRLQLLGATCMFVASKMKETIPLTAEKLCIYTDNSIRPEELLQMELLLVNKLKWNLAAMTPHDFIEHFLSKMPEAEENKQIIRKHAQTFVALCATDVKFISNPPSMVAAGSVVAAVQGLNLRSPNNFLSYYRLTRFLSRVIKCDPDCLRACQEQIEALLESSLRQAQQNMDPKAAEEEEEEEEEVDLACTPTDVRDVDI

Regarding `CC(=O)c1ccc(Nc2ccc3c(c2)/C(=C/Nc2ccc(CN4CCCCC4)cc2)C(=O)NC3=O)cc1` [Example 901, (4Z)-6-[(4-acetylphenyl)amino]-4-({[4-(piperidin-1-ylmethyl)phenyl]amino}methylene)isoquinoline-1,3(2H,4H)-dione], in data set [1], the IC50 turned out to be 6.03 µM.

Consider `CC(=O)c1cccc(Nc2ccc3c(c2)/C(=C/Nc2ccc(N4CCN(C)CC4)cc2)C(=O)NC3=O)c1` [Example 881], for which, in data set [1], the IC50 came out at 0.361 µM.

`COc1ccc(Nc2ccc3c(c2)/C(=C/Nc2ccc(CN(C)C)cc2)C(=O)NC3=O)cc1` [Example 908, (4Z)-4-[({4-[(dimethylamino)methyl]phenyl}amino)methylene]-6-[(4-methoxyphenyl)amino]isoquinoline-1,3(2H,4H)-dione]: the IC50 in data set [1] came out at 0.566 µM.

For `CC(=O)c1cccc(Nc2ccc3c(c2)/C(=C/Nc2ccc(N4CC(C)NC(C)C4)cc2)C(=O)NC3=O)c1` (centres unmarked) [Example 910, (4Z)-6-[(3-acetylphenyl)amino]-4-({[4-(3,5-dimethylpiperazin-1-yl)phenyl]amino}methylene)isoquinoline-1,3(2H,4H)-dione], the IC50 in data set [1] is 0.54 µM. Turning to `O=C1NC(=O)c2ccc(Nc3cccc(C(F)(F)F)c3)cc2/C1=C/Nc1ccc(CN2CCCCC2)cc1` [Example 886, (4Z)-4-({[4-(piperidin-1-ylmethyl)phenyl]amino}methylene)-6-{[3-(trifluoromethyl)phenyl]amino}isoquinoline-1,3(2H,4H)-dione], in [1] (10 uM compound, read-out: Igfr % Inhibition at 10 uM), the inhibition at 10 µM was found to be 32%. On to `COc1cccc(Nc2ccc3c(c2)/C(=C/Nc2ccc(CN4CCCCC4)cc2)C(=O)NC3=O)c1` [Example 892, (4Z)-6-[(3-methoxyphenyl)amino]-4-({[4-(piperidin-1-ylmethyl)phenyl]amino}methylene)isoquinoline-1,3(2H,4H)-dione], for which the IC50 in data set [1] came to 0.954 µM. For the molecule `COc1ccccc1Nc1ccc2c(c1)/C(=C/Nc1ccc(CN3CCCCC3)cc1)C(=O)NC2=O` [Example 891], the IC50 in data set [1] was found to be 0.575 µM.

With `CC(=O)c1cccc(Nc2ccc3c(c2)/C(=C/Nc2ccc(CN4CCCCC4)cc2)C(=O)NC3=O)c1` [Example 885, (4Z)-6-[(3-acetylphenyl)amino]-4-({[4-(piperidin-1-ylmethyl)phenyl]amino}methylene)isoquinoline-1,3(2H,4H)-dione], in data set [1], the IC50 was 0.36 µM. Consider `CC(=O)c1cccc(Nc2ccc3c(c2)/C(=C/Nc2ccc(CN(C)C)cc2)C(=O)NC3=O)c1` [Example 909, (4Z)-6-[(3-acetylphenyl)amino]-4-[({4-[(dimethylamino)methyl]phenyl}amino)methylene]isoquinoline-1,3(2H,4H)-dione], for which, in data set [1], the IC50 is 0.887 µM. Still for that read-out and setting: for `NC(=O)c1ccc(Nc2ccc3c(c2)/C(=C/Nc2ccc(CN4CCCCC4)cc2)C(=O)NC3=O)cc1` [Example 894, 4-{[(4Z)-1,3-dioxo-4-({[4-(piperidin-1-ylmethyl)phenyl]amino}methylene)-1,2,3,4-tetrahydroisoquinolin-6-yl]amino}benzamide] the value was 1.11 µM; for `Cc1ccccc1Nc1ccc2c(c1)/C(=C/Nc1ccc(CN3CCCCC3)cc1)C(=O)NC2=O` [Example 882, 4-[(4-piperidin-1-ylmethyl-phenylamino)-methylene]-6-o-tolylamino-4H-isoquinoline-1,3-dione], 4.47 µM.

Regarding `O=C1NC(=O)c2ccc(Br)cc2/C1=C/NCc1ccncc1` [Example 31, (4Z)-6-Bromo-4-{[(pyridin-4-ylmethyl)amino]methylene}isoquinoline-1,3(2H,4H)-dione], the melting point lay within 258 to 259 °C. The IC50 in [2] was above 50 µM. For the same molecule, the IC50 in data set [3] was 2.4 µM. Also, the IC50 in data set [4] is above 50 µM. Further, the IC50 in data set [5] stood at 41 µM. Also, the IC50 in [6] is 31 µM. Moreover, in data set [7], the IC50 is above 50 µM. The IC50 in [8] is above 50 µM. Moreover, the IC50 in data set [9] is above 50 µM.
